Consider 16 compounds from patent publication US20070270434A1, “SULFONYL-SUBSTITUTED BICYCLIC COMPOUNDS AS MODULATORS OF PPAR” (KALYPSYS, INC., priority 2006, published 2007).

Common to all, as to type: cell-based, murine and human
Settings in all cases: 20-24 hours

Assay [1] deals with T1, PPAR-delta ligand binding domain fused to GAL4 DNA binding domain (UniProt Q03181).
T1 sequence (Q03181 1-441): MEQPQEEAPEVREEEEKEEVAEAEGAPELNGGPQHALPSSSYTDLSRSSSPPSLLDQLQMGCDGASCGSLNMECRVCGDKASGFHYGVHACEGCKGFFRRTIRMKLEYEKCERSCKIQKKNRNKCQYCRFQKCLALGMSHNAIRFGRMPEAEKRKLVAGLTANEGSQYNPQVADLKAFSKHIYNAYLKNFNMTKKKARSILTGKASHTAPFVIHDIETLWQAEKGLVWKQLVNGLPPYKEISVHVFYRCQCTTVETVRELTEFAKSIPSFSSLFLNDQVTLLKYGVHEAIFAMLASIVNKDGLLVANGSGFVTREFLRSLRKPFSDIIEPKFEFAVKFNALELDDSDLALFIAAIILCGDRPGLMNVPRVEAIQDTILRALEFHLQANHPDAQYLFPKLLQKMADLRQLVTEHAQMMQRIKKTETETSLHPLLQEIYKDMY
The experiment in a line: Transient transfection transactivation assay in CV-1 cells, PPAR-delta (GAL4 chimera, luciferase reporter). The text has this: (§1) Compounds may be screened for functional potency in transient transfection assays in CV-1 cells for their ability to activate the PPAR subtypes (transactivation assay). A previously established chimeric receptor system was utilized to allow comparison of the relative transcriptional activity of the receptor subtypes on the same synthetic response element and to prevent endogenous receptor activation from complicating the interpretation of results. See, for example, Lehmann, J. M.; Moore, L. B.; Smith-Oliver, T. A; Wilkinson, W. O.; Willson, T. M.; Kliewer, S. A., An antidiabetic thiazolidinedione is a high affinity ligand for peroxisome proliferator-activated receptor […], J. Biol. Chem., 1995, 270, 12953-6. The ligand binding domains for murine and human PPAR-alpha, PPAR-gamma, and PPAR-delta are each fused to the yeast transcription factor GAL4 DNA binding domain. CV-1 cells were transiently transfected with expression vectors for the respective PPAR chimera along with a reporter construct containing four or five copies of the GAL4 DNA binding site driving expression of luciferase. After 8-16 h, the cells are replated into multi-well assay plates and the media is exchanged to phenol-red free DME medium supplemented with 5% delipidated calf serum. 4 hours after replating, cells were treated with either compounds or 1% DMSO for 20-24 hours. Luciferase activity was then assayed with Britelite (Perkin Elmer) following the manufacturer's protocol and measured with either the Perkin Elmer Viewlux or Molecular Devices Acquest (see, for example, Kliewer, S. A., et. al. Cell 1995, 83, 813-819). Rosiglitazone is used as a positive control in the PPARγ assay. Wy-14643 and GW7647 are used as positive controls in the PPARα assay. GW501516 is used as the positive control in the PPARδ assay.

Assay [2] has as its target T2, PPAR-alpha ligand binding domain fused to GAL4 DNA binding domain (UniProt Q07869).
T2 sequence (Q07869 1-468): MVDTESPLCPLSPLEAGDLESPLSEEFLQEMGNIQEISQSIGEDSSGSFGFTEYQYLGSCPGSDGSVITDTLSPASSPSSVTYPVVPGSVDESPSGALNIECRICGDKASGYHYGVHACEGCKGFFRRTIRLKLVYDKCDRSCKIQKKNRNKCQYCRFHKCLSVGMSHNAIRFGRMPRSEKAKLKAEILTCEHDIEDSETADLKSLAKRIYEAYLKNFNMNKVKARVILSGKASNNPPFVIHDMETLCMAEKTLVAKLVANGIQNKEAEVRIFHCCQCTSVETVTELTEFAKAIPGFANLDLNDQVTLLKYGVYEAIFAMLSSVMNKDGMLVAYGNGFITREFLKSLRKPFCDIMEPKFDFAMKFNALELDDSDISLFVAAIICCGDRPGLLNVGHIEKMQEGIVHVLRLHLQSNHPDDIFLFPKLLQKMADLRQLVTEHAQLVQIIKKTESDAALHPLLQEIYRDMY
Put plainly: Transient transfection transactivation assay in CV-1 cells, PPAR-alpha (GAL4 chimera, luciferase reporter).
Excerpt: as §1

The target in assay [3] is T3, PPAR-gamma ligand binding domain fused to GAL4 DNA binding domain (UniProt P37231).
T3 sequence (P37231 1-505): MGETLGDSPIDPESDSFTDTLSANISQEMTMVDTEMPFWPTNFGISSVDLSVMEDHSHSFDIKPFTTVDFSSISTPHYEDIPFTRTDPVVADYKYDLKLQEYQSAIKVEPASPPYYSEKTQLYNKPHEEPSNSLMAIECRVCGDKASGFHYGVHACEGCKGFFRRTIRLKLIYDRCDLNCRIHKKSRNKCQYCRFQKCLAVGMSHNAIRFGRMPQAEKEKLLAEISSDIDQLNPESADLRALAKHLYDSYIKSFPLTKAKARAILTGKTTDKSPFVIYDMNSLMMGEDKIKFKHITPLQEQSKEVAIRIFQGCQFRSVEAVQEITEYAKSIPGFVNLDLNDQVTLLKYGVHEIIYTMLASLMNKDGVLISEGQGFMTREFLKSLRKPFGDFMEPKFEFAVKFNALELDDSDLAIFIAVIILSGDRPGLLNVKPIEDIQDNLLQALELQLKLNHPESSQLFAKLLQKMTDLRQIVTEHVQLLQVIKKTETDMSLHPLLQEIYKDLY
The experiment in a line: Transient transfection transactivation assay in CV-1 cells, PPAR-gamma (GAL4 chimera, luciferase reporter).
Excerpt: as §1
On the technique in general: In a reporter assay the amount or activity of a reporter protein is the signal.

Consider `O=C(O)C1Cc2cccc(S(=O)(=O)N3CCN(CCc4ccc(C(F)(F)F)cc4)CC3)c2C1` (stereo not drawn) [Example 21, 4-(4-(4-(trifluoromethyl)phenethyl)piperazin-1-ylsulfonyl)-2,3-dihydro-1H-indene-2-carboxylic acid], for which the results for the EC50 in assay [1], in assay [2] and in assay [3] were less than 5 µM, 5 to 100 µM and 5 to 100 µM, respectively.
`C[C@@H]1CN(CCc2ccc(C(F)(F)F)c(F)c2)C[C@H](C)N1S(=O)(=O)c1cccc2c1CC(C(=O)O)C2` (stereo partly drawn) [Example 26, 4-(4-(3-Fluoro-4-(trifluoromethyl)phenethyl)-(cis)-2,6-dimethylpiperazin-1-ylsulfonyl)-2,3-dihydro-1H-indene-2-carboxylic acid]: the values for the EC50 in assay [1], in assay [2] and in assay [3] were less than 5 µM, more than 100 µM and more than 100 µM, respectively.
For the compound `C[C@@H]1CN(CC2(c3ccc(Cl)cc3)CC2)C[C@H](C)N1S(=O)(=O)c1cccc2c1CC(C(=O)O)C2` (stereo partly drawn) [Example 25, 4-(4-((1-(4-chlorophenyl)cyclopropyl)methyl)-(cis)-2,6-dimethylpiperazin-1-ylsulfonyl)-2,3-dihydro-1-H-indene-2-carboxylic acid], the EC50 (in general, the concentration that produces a half-maximal response) is less than 5 µM in assay [1], more than 100 µM in assay [2] and more than 100 µM in assay [3].
As for `C[C@@H]1CN(S(=O)(=O)c2ccc(OC(F)(F)F)cc2)C[C@H](C)N1S(=O)(=O)c1cccc2c1CC(C(=O)O)C2` (stereo partly drawn) [Example 11, 4-(cis-2,6-Dimethyl-4-(4-(trifluoromethoxy)phenylsulfonyl)piperazin-1-ylsulfonyl)-2,3-dihydro-1H-indene-2-carboxylic acid], the EC50 in assay [1] was less than 5 µM; in assay [2] it was more than 100 µM; in assay [3], 5 to 100 µM.
For the compound `C[C@@H]1CN(CC(c2ccc(Cl)cc2)c2ccc(Cl)cc2)C[C@H](C)N1S(=O)(=O)c1cccc2c1CC(C(=O)O)C2` (stereo partly drawn) [Example 28, 4-(4-(2,2bis(4-Chlorophenyl)ethyl)-(cis)-2,6-dimethylpiperazin-1-ylsulfonyl)-2,3-dihydro-1H-indene-2-carboxylic acid], the EC50 in assay [1], in assay [2] and in assay [3] was more than 100 µM in each case.
`C[C@@H]1CN(CCc2ccc(SC(F)(F)F)cc2)C[C@H](C)N1S(=O)(=O)c1cccc2c1CC(C(=O)O)C2` (stereo partly drawn) [Example 23, 4-((cis)-2,6-Dimethyl-4-(4-(trifluoromethylthio)phenethyl)piperazin-1-ylsulfonyl)-2,3-dihydro-1H-indene-2-carboxylic acid]: the results for the EC50 in assay [1], in assay [2] and in assay [3] were less than 5 µM, 5 to 100 µM and 5 to 100 µM, respectively.
As for `O=C(O)C1Cc2cccc(S(=O)(=O)N3CCN(S(=O)(=O)c4ccc(OC(F)(F)F)cc4)CC3)c2C1` (stereo not drawn) [Example 10, 4-(4-(4-(Trifluoromethoxy)phenylsulfonyl)piperazin-1-ylsulfonyl)-2,3-dihydro-1H-indene-2-carboxylic acid], the EC50 was 5 to 100 µM in assay [1], more than 100 µM in assay [2] and 5 to 100 µM in assay [3].
For the compound `C[C@@H]1CN(CCCc2ccc(OC(F)(F)F)cc2)C[C@H](C)N1S(=O)(=O)c1cccc2c1CC(C(=O)O)C2` (stereo partly drawn) [Example 17, 4-(cis-2,6-dimethyl-4-(3-(4-(trifluoromethoxy)phenyl)propyl)piperazin-1-ylsulfonyl)-2,3-dihydro-1H-indene-2-carboxylic acid], the half-maximal effective concentration (EC50) is less than 5 µM in assay [1], more than 100 µM in assay [2] and 5 to 100 µM in assay [3].
Regarding `O=C(O)C1Cc2cccc(S(=O)(=O)N3CCN(CCCc4ccc(OC(F)(F)F)cc4)CC3)c2C1` (stereo not drawn) [Example 22, 4-(4-(3-(4-(Trifluoromethoxy)phenyl)propyl)piperazin-1-ylsulfonyl)-2,3-dihydro-1H-indene-2-carboxylic acid], the half-maximal effective concentration (EC50) was less than 5 µM in assay [1], 5 to 100 µM in assay [2] and less than 5 µM in assay [3].
With `C[C@@H]1CN(Cc2ccc(OC(F)(F)F)c(Cl)c2)C[C@H](C)N1S(=O)(=O)c1cccc2c1CC(C(=O)O)C2` (stereo partly drawn) [Example 4, 4-(4-(3-Chloro-4-(trifluoromethoxy)benzyl)-cis-2,6-dimethylpiperazin-1-ylsulfonyl)2,3-dihydro-1H-indene-2-carboxylic acid], the EC50 in assay [1] was less than 5 µM; in assay [2], 5 to 100 µM; in assay [3] it was 5 to 100 µM.
With `C[C@@H]1CN(CCc2ccc(C(F)(F)F)cc2)C[C@H](C)N1S(=O)(=O)c1cccc2c1CC(C(=O)O)C2` (mixture of isomers) [Example 14A, 4-(cis-2,6-Dimethyl-4-(4-(trifluoromethyl)phenethyl)piperazin-1-ylsulfonyl)-2,3-dihydro-1H-indene-2-carboxylic acid], the EC50 in assay [1] is less than 5 µM; in assay [2] it was more than 100 µM; in assay [3], more than 100 µM.
For `C[C@@H]1CN(CCc2ccc(Cl)cc2)C[C@H](C)N1S(=O)(=O)c1cccc2c1CC(C(=O)O)C2` (stereo partly drawn) [Example 24, 4-(4-(4-chlorophenethyl)-(cis)-2,6-dimethylpiperazin-1-ylsulfonyl)-2,3-dihydro-1H-indene-2-carboxylic acid], the EC50 is less than 5 µM in assay [1], more than 100 µM in assay [2] and more than 100 µM in assay [3].
With `C[C@@H]1CN(C(=O)c2ccc(OC(F)(F)F)cc2)C[C@H](C)N1S(=O)(=O)c1cccc2c1CC(C(=O)O)C2` (stereo partly drawn) [Example 9, 4-(cis-2,6-Dimethyl-4-(4-(trifluoromethoxy)benzoyl)piperazin-1-ylsulfonyl)-2,3-dihydro-1H-indene-2-carboxylic acid], the EC50 in assay [1] was 5 to 100 µM; in assay [2], more than 100 µM; in assay [3], more than 100 µM.
In the case of `C[C@@H]1CN(C(=O)Cc2ccc(C(F)(F)F)cc2)C[C@H](C)N1S(=O)(=O)c1cccc2c1CC(C(=O)O)C2` (stereo partly drawn) [Example 13, 4-(cis-2,6-Dimethyl-4-(2-(4-(trifluoromethyl)phenyl)acetyl)piperazin-1-ylsulfonyl)-2,3-dihydro-1H-indene-2-carboxylic acid], the EC50 in assay [1] was 5 to 100 µM; in assay [2] it was more than 100 µM; in assay [3], more than 100 µM.
As for `C[C@@H]1CN(C(=O)CCc2ccc(OC(F)(F)F)cc2)C[C@H](C)N1S(=O)(=O)c1cccc2c1CC(C(=O)O)C2` (stereo partly drawn) [Example 8, 4-(cis-2,6-Dimethyl-4-(3-(4-(trifluoromethoxy)phenyl)propanoyl)piperazin-1-ylsulfonyl)-2,3-dihydro-1H-indene-2-carboxylic acid], the values for the concentration giving a half-maximal response (EC50) in assay [1], in assay [2] and in assay [3] were less than 5 µM, more than 100 µM and more than 100 µM, respectively.
As for `O=C(O)C1Cc2cccc(S(=O)(=O)N3CCN(C(=O)CCc4ccc(OC(F)(F)F)cc4)CC3)c2C1` (stereo not drawn) [Example 16, 4-(4-(3-(4-(Trifluoromethoxy)phenyl)propanoyl)piperazin-1-ylsulfonyl)-2,3-dihydro-1H-indene-2-carboxylic acid], the concentration giving a half-maximal response (EC50) is 5 to 100 µM in assay [1], more than 100 µM in assay [2] and more than 100 µM in assay [3].
